Source: ChEMBL document CHEMBL1201862, “PubChem BioAssay data set” (2004)
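Step 1: Grow cells in 96-well plates. Step 2: Expose to compound for 48 hours at 5 concentrations. Step 3: Interpolate endpoints linearly; if unreached, use highest concentration. GI50 marks 50% less growth.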 Active and inactive are the calls of the source. Rule as the data show it: active = GI50 up to about 1.1 µM and inactive = higher.

What was measured:
Experiment in all cases: growth of human tumour cells (NCI), 48 h
[1] = tested on: HL-60
[2] = tested on: UACC-257
[3] = tested on: A498
[4] = tested on: DMS-273
[5] = tested on: EKVX
[6] = tested on: Malme-3M
[7] = tested on: LXFL 529
[8] = tested on: SK-MEL-28
[9] = tested on: ACHN
[10] = tested on: SW-620
[11] = tested on: NCI-H226
[12] = tested on: UACC-62
[13] = tested on: SF-539
[14] = tested on: CCRF-CEM
[15] = tested on: SF-295
[16] = tested on: HOP-62
[17] = tested on: DLD-1
[18] = tested on: RXF 631
[19] = tested on: SNB-19
[20] = tested on: 786-0
[21] = tested on: U-251
[22] = tested on: CAKI-1
[23] = tested on: SN12C
[24] = tested on: HT-29
[25] = tested on: HCC 2998
[26] = tested on: TK-10
[27] = tested on: KM12
[28] = tested on: KM-20L2
[29] = tested on: NCI-H522
[30] = tested on: SR
[31] = tested on: SF-268
[32] = tested on: OVCAR-8
[33] = tested on: MOLT-4
[34] = tested on: M14
[35] = tested on: SK-OV-3
[36] = tested on: K562
[37] = tested on: OVCAR-4
[38] = tested on: OVCAR-5
[39] = tested on: SNB-78
[40] = tested on: RXF 393
[41] = tested on: SNB-75
[42] = tested on: M19-MEL
[43] = tested on: A549
[44] = tested on: XF498
[45] = tested on: UO-31
[46] = tested on: SK-MEL-2
[47] = tested on: NCI-H23
[48] = tested on: HOP-92
[49] = tested on: HCT-116
[50] = tested on: IGROV-1
[51] = tested on: OVCAR-3
[52] = tested on: HCT-15
[53] = tested on: HOP-18
[54] = tested on: COLO 205
[55] = tested on: DMS-114
[56] = tested on: SK-MEL-5
[57] = tested on: RPMI-8226
[58] = tested on: NCI-H460
[59] = tested on: LOX IMVI

Measured: GI50

COc1ccc2nc3ccccc3c(NCCN(CCCl)CCCl)c2c1
inactive: [2] 1.3 µM | [3] 2.49 µM | [5] 2.35 µM | [6] 1.51 µM | [8] 2.36 µM | [25] 1.28 µM | [26] 1.76 µM | [27] 1.34 µM | [35] 1.48 µM | [40] 1.66 µM | [41] 1.25 µM | [42] 1.27 µM | [45] 1.57 µM | [46] 1.81 µM | [50] 1.3 µM
active: [1] 0.206 µM | [4] 0.333 µM | [7] 0.466 µM | [9] 0.336 µM | [10] 0.238 µM | [11] 1 µM | [12] 1 µM | [13] 0.608 µM | [14] 0.144 µM | [15] 0.614 µM | [16] 0.555 µM | [17] 0.738 µM | [18] 0.455 µM | [19] 0.656 µM | [20] 0.33 µM | [21] 0.326 µM | [22] 251 nM | [23] 0.658 µM | [24] 0.543 µM | [28] 0.474 µM | [29] 0.348 µM | [30] 32.1 nM | [31] 0.783 µM | [32] 0.649 µM | [33] 0.0592 µM | [34] 1.03 µM | [36] 0.407 µM | [37] 1.08 µM | [38] 0.643 µM | [39] 0.769 µM | [43] 0.771 µM | [44] 497 nM | [47] 0.156 µM | [48] 476 nM | [49] 0.272 µM | [51] 0.269 µM

COc1ccc(/C=C2\CCCC(C(NO)c3ccc(OC)cc3)C2=NO)cc1 (configuration not stated)
inactive: [1] 16.2 µM | [2] 38.1 µM | [3] 36.1 µM | [4] 45.9 µM | [5] 48.8 µM | [6] 34.1 µM | [7] 28.1 µM | [8] 26.9 µM | [9] 41.6 µM | [10] 44.3 µM | [12] 53 µM | [13] 27.5 µM | [14] 33.9 µM | [15] 55.6 µM | [16] 98.9 µM | [53] 32.4 µM | [17] 46.7 µM | [18] 40.5 µM | [19] 61.4 µM | [20] 29.2 µM | [21] 62.5 µM | [22] 49000 nM | [23] 39.3 µM | [24] 72.1 µM | [25] 61.2 µM | [54] 44.3 µM | [26] 66.1 µM | [27] 89.5 µM | [28] 61.9 µM | [29] 27.2 µM | [55] 28.4 µM | [31] 68.2 µM | [32] 40.5 µM | [33] 23.1 µM | [34] 39.7 µM | [35] > 100 µM | [56] 20 µM | [36] 35.4 µM | [37] 29.5 µM | [39] 45.7 µM | [40] 26.7 µM | [41] 26.3 µM | [42] 46.3 µM | [57] 28.8 µM | [43] 44.5 µM | [58] 59.8 µM | [45] 28.8 µM | [46] 85.1 µM | [47] 38.6 µM | [49] 35.8 µM | [50] 33.9 µM | [51] 47.3 µM
35.6 µM: [52]

CCOc1ccc(/C=C\c2cc(OC)c(OC)c(OC)c2)cc1
0.027 µM: [52]
active: [1] < 0.0001 µM | [2] 0.01 µM | [3] 0.00124 µM | [4] 0.0153 µM | [5] 0.735 µM | [6] 0.00139 µM | [7] < 0.0001 µM | [8] 0.000235 µM | [9] 0.01 µM | [10] < 0.0001 µM | [11] 0.00218 µM | [12] 0.01 µM | [13] 0.000102 µM | [14] 0.01 µM | [15] < 0.0001 µM | [16] 0.000964 µM | [17] 0.0194 µM | [18] 0.367 µM | [19] 0.000165 µM | [20] 0.000216 µM | [21] 0.000172 µM | [22] 10 nM | [23] 0.00129 µM | [24] 0.000131 µM | [25] 0.0685 µM | [54] 0.0127 µM | [27] 0.00703 µM | [28] 0.000241 µM | [29] < 0.0001 µM | [30] 0.931 nM | [55] 0.00118 µM | [31] 0.000625 µM | [32] 0.000456 µM | [33] 0.000634 µM | [34] 0.01 µM | [56] 0.012 µM | [36] < 0.0001 µM | [37] 0.114 µM | [39] 0.000745 µM | [40] < 0.0001 µM | [41] < 0.0001 µM | [42] 0.0191 µM | [57] 0.000443 µM | [43] 0.0006 µM | [44] 0.453 nM | [58] 0.000674 µM | [45] 0.00041 µM | [46] 0.00378 µM | [47] 0.027 µM | [48] 0.828 nM | [49] 0.00033 µM | [50] 0.2 µM | [59] 0.291 nM | [51] 0.000303 µM
inactive: [26] 29.6 µM | [38] 22.1 µM

CSc1ccc2c(cc1=O)C(NC(=O)c1ccc(C#N)cc1)CCc1cc(O)c(O)c(O)c1-2 (configuration not stated)
inactive: [1] 20.1 µM | [2] 12.2 µM | [3] 44.5 µM | [4] 34.9 µM | [5] 22.4 µM | [6] > 100 µM | [7] 19.8 µM | [8] > 100 µM | [9] > 100 µM | [10] 19.5 µM | [11] 26.2 µM | [12] 19.3 µM | [13] 15.5 µM | [14] 9.66 µM | [15] 27.2 µM | [16] > 100 µM | [17] 23.1 µM | [18] 49.8 µM | [19] 41.9 µM | [20] 37.2 µM | [21] 19.5 µM | [23] 19.8 µM | [24] 29 µM | [25] 21.8 µM | [54] 19.6 µM | [26] 63 µM | [27] 33.7 µM | [28] 24.7 µM | [29] 15.7 µM | [30] 11700 nM | [55] 14.8 µM | [31] 43.4 µM | [32] 30.5 µM | [33] 22.5 µM | [34] 30 µM | [35] 27.4 µM | [56] 15.4 µM | [36] 7.26 µM | [37] 12.1 µM | [38] > 100 µM | [39] 5.58 µM | [41] 4.2 µM | [42] 11.9 µM | [43] 44.4 µM | [44] 26800 nM | [58] 27.6 µM | [45] 75.9 µM | [47] 27.6 µM | [49] 18.4 µM | [51] 36.6 µM
19 µM: [52]
